Several values for one entry are separate records, joined by “and”; a condition that tells them apart may be missing. Equal entries are not always repeated.
Test system: 616215-338-R-J1-PDC complex spheroids, viability % test/control
Assay: Anticancer human tumor 616215-338-R-J1-PDC patient-derived colon adenocarcinoma cell line growth inhibition [CLK]
Details: for viability, T/C: stronger effect = lower value
Summary of the method: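 Patient-derived tumor cells grown as complex spheroids with HUVEC endothelial cells and mesenchymal stem cells, treated with drug combinations. Concentrations descend in half-log steps from near clinical Cmax, or from 10 microM if Cmax unknown.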

[1] = curve of first compound, second compound 0.0316 µM
[2] = curve of first compound, second compound 0.1 µM
[3] = curve of first compound, second compound 0.316 µM
[4] = curve of first compound, second compound 1 µM
[5] = curve of first compound, second compound 3.16 µM
[6] = curve of first compound, second compound 10 µM
[7] = second compound 0.0316 µM, first compound 0.0316 µM
[8] = second compound 0.0316 µM, first compound 0.1 µM
[9] = second compound 0.0316 µM, first compound 0.316 µM
[10] = second compound 0.0316 µM, first compound 1 µM
[11] = second compound 0.0316 µM, first compound 3.16 µM
[12] = second compound 0.0316 µM, first compound 10 µM
[13] = second compound 0.1 µM, first compound 0.0316 µM
[14] = second compound 0.1 µM, first compound 0.1 µM
[15] = second compound 0.1 µM, first compound 0.316 µM
[16] = second compound 0.1 µM, first compound 1 µM
[17] = second compound 0.1 µM, first compound 3.16 µM
[18] = second compound 0.1 µM, first compound 10 µM
[19] = second compound 0.316 µM, first compound 0.0316 µM
[20] = second compound 0.316 µM, first compound 0.1 µM
[21] = second compound 0.316 µM, first compound 0.316 µM
[22] = second compound 0.316 µM, first compound 1 µM
[23] = second compound 0.316 µM, first compound 3.16 µM
[24] = second compound 0.316 µM, first compound 10 µM
[25] = second compound 1 µM, first compound 0.0316 µM
[26] = second compound 1 µM, first compound 0.1 µM
[27] = second compound 1 µM, first compound 0.316 µM
[28] = second compound 1 µM, first compound 1 µM
[29] = second compound 1 µM, first compound 3.16 µM
[30] = second compound 1 µM, first compound 10 µM
[31] = second compound 3.16 µM, first compound 0.0316 µM
[32] = second compound 3.16 µM, first compound 0.1 µM
[33] = second compound 3.16 µM, first compound 0.316 µM
[34] = second compound 3.16 µM, first compound 1 µM
[35] = second compound 3.16 µM, first compound 3.16 µM
[36] = second compound 3.16 µM, first compound 10 µM
[37] = second compound 10 µM, first compound 0.0316 µM
[38] = second compound 10 µM, first compound 0.1 µM
[39] = second compound 10 µM, first compound 0.316 µM
[40] = second compound 10 µM, first compound 1 µM
[41] = second compound 10 µM, first compound 3.16 µM
[42] = second compound 10 µM, first compound 10 µM
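Note: spheroids exposed to agents for 7 days.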
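Throughout, for viability, T/C: 100% = DMSO vehicle wells.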

## Nc1ccn(C2OC(CO)C(O)C2(F)F)c(=O)n1 (stereo not drawn) + CN1CCN(c2cc(C(=O)Nc3cc4cc(-c5cnn(C)c5)ccc4cn3)ccn2)CC1
[1]
  IC50: < 31.6 nM
[2]
  IC50: < 31.6 nM
[3]
  IC50: < 31.6 nM
[4]
  IC50: < 31.6 nM
[5]
  IC50: < 31.6 nM
[6]
  IC50: < 31.6 nM
[7]
  viability, T/C: 15.5%
[8]
  viability, T/C: 10.3%
[9]
  viability, T/C: 14.1%
[10]
  viability, T/C: 13.6%
[11]
  viability, T/C: 14.3%
[12]
  viability, T/C: 12.7%
[13]
  viability, T/C: 18%
[14]
  viability, T/C: 14.5%
[15]
  viability, T/C: 14%
[16]
  viability, T/C: 14.3%
[17]
  viability, T/C: 17%
[18]
  viability, T/C: 18%
[19]
  viability, T/C: 13.8%
[20]
  viability, T/C: 11%
[21]
  viability, T/C: 13.8%
[22]
  viability, T/C: 10.6%
[23]
  viability, T/C: 12.1%
[24]
  viability, T/C: 13.3%
[25]
  viability, T/C: 0.1%
[26]
  viability, T/C: 0.13%
[27]
  viability, T/C: 2.94%
[28]
  viability, T/C: 0.12%
[29]
  viability, T/C: 1.83%
[30]
  viability, T/C: 1.85%
[31]
  viability, T/C: 0.1%
[32]
  viability, T/C: 0.13%
[33]
  viability, T/C: 0.14%
[34]
  viability, T/C: 0.09%
[35]
  viability, T/C: 0.1%
[36]
  viability, T/C: 0.11%
[37]
  viability, T/C: 0.15%
[38]
  viability, T/C: 1.73%
[39]
  viability, T/C: 0.16%
[40]
  viability, T/C: 2%
[41]
  viability, T/C: 3.33%
[42]
  viability, T/C: 0.18%

## CC1(C)CCC(CN2CCN(c3ccc(C(=O)NS(=O)(=O)c4ccc(NCC5CCOCC5)c([N+](=O)[O-])c4)c(Oc4cnc5[nH]ccc5c4)c3)CC2)=C(c2ccc(Cl)cc2)C1 + CNC(=O)c1ccc(Nc2nc(OC3CCCC3)c3c(-c4ccc5nc(C)oc5c4)c[nH]c3n2)c(OC)c1
[1]
  IC50: > 10000 nM
[2]
  IC50: 416 nM
[3]
  IC50: < 31.6 nM
[4]
  IC50: < 31.6 nM
[5]
  IC50: < 31.6 nM
[6]
  IC50: < 31.6 nM
[7]
  viability, T/C: 101%
[8]
  viability, T/C: 99.1%
[9]
  viability, T/C: 92.8%
[10]
  viability, T/C: 100%
[11]
  viability, T/C: 80%
[12]
  viability, T/C: 91.5%
[13]
  viability, T/C: 55.3%
[14]
  viability, T/C: 50.6%
[15]
  viability, T/C: 50.9%
[16]
  viability, T/C: 42.8%
[17]
  viability, T/C: 18.5%
[18]
  viability, T/C: 56.7%
[19]
  viability, T/C: 46.6%
[20]
  viability, T/C: 49%
[21]
  viability, T/C: 45.4%
[22]
  viability, T/C: 33.9%
[23]
  viability, T/C: 21.2%
[24]
  viability, T/C: 45.7%
[25]
  viability, T/C: 50.9%
[26]
  viability, T/C: 48.2%
[27]
  viability, T/C: 46.2%
[28]
  viability, T/C: 35.9%
[29]
  viability, T/C: 20.5%
[30]
  viability, T/C: 48.9%
[31]
  viability, T/C: 38.8%
[32]
  viability, T/C: 42.5%
[33]
  viability, T/C: 44.6%
[34]
  viability, T/C: 33.3%
[35]
  viability, T/C: 24.8%
[36]
  viability, T/C: 50.7%
[37]
  viability, T/C: 36.3%
[38]
  viability, T/C: 42%
[39]
  viability, T/C: 41.7%
[40]
  viability, T/C: 41%
[41]
  viability, T/C: 27.2%
[42]
  viability, T/C: 41.7%

## CCc1c2c(nc3ccc(O)cc13)-c1cc3c(c(=O)n1C2)COC(=O)[C@]3(O)CC + CNC(=O)c1ccc(Nc2nc(OC3CCCC3)c3c(-c4ccc5nc(C)oc5c4)c[nH]c3n2)c(OC)c1
[1]
  IC50: 13.5 nM
[2]
  IC50: 7.31 nM
[3]
  IC50: < 3.16 nM
[4]
  IC50: 3.52 nM
[5]
  IC50: < 3.16 nM
[6]
  IC50: < 3.16 nM
Second compound 0.0316 µM, first compound 0.00316 µM
  viability, T/C: 111%
Second compound 0.0316 µM, first compound 0.01 µM
  viability, T/C: 51.1%
[7]
  viability, T/C: 35.8%
[8]
  viability, T/C: 25.6%
[9]
  viability, T/C: 14.6%
[10]
  viability, T/C: 9.31%
Second compound 0.1 µM, first compound 0.00316 µM
  viability, T/C: 56.9%
Second compound 0.1 µM, first compound 0.01 µM
  viability, T/C: 51.3%
[13]
  viability, T/C: 27.3%
[14]
  viability, T/C: 21.5%
[15]
  viability, T/C: 14.6%
[16]
  viability, T/C: 5.13%
Second compound 0.316 µM, first compound 0.00316 µM
  viability, T/C: 37.9%
Second compound 0.316 µM, first compound 0.01 µM
  viability, T/C: 38.9%
[19]
  viability, T/C: 24.8%
[20]
  viability, T/C: 20.2%
[21]
  viability, T/C: 14.6%
[22]
  viability, T/C: 1.77%
Second compound 1 µM, first compound 0.00316 µM
  viability, T/C: 53.5%
Second compound 1 µM, first compound 0.01 µM
  viability, T/C: 28.5%
[25]
  viability, T/C: 18.4%
[26]
  viability, T/C: 17.2%
[27]
  viability, T/C: 11.8%
[28]
  viability, T/C: 1.4%
Second compound 3.16 µM, first compound 0.00316 µM
  viability, T/C: 37%
Second compound 3.16 µM, first compound 0.01 µM
  viability, T/C: 27.3%
[31]
  viability, T/C: 17.1%
[32]
  viability, T/C: 14.9%
[33]
  viability, T/C: 11.8%
[34]
  viability, T/C: 2.58%
Second compound 10 µM, first compound 0.00316 µM
  viability, T/C: 40.6%
Second compound 10 µM, first compound 0.01 µM
  viability, T/C: 25.2%
[37]
  viability, T/C: 18.5%
[38]
  viability, T/C: 17.3%
[39]
  viability, T/C: 11.6%
[40]
  viability, T/C: 1.03%

## C=CC(=O)Nc1cc(Nc2nccc(-c3cn(C)c4ccccc34)n2)c(OC)cc1N(C)CCN(C)C
Compound 0.000949 µM
  viability, T/C: 108% and 95%
Compound 0.003 µM
  viability, T/C: 93.5% and 105%
Compound 0.00949 µM
  viability, T/C: 107% and 85.4%
Compound 0.03 µM
  viability, T/C: 95.3% and 86.5%
Compound 0.0949 µM
  viability, T/C: 134% and 90.5%
Compound 0.3 µM
  viability, T/C: 100% and 111%
Curve of compound
  IC50: > 300 nM

From PubChem BioAssay AID2060610 (Molecular Pharmacology Branch, DTP, NCI, 2025)
